The text below walks through data of ChEMBL document CHEMBL2203172, “Synthesis of chiral hydroxylated enones as potential anti-tumor agents” (Bioorg Med Chem Lett, 2012).

One experiment relates to HL-60. Kind of experiment: Cytotoxicity against human HL60 cells. The format is functional, cell-based.
In the next experiment the test system is WRL68. Nature of the experiment: Cytotoxicity against human WRL68 cells. The class given is cell-based.
The next experiment deals with HepG2. Nature of the experiment: Cytotoxicity against human HepG2 cells. The format is functional, cell-based.

On to `CO[C@H]1C=C(COC(C)=O)C(=O)[C@H](O)[C@H]1O`, for which the IC50 with HL-60 is over 50 µM; with WRL68, over 200 µM; in the experiment with HepG2, over 50 µM.
As to `CCCCCCCO[C@H]1C=C(COC(C)=O)C(=O)[C@H](O)[C@H]1O`, the IC50 is 39.8 µM in the experiment on HL-60, 152 µM in the experiment with WRL68 and over 50 µM with HepG2.
The corresponding values for `CC(=O)OCC1=C[C@H](OCc2ccc3ccccc3c2)[C@H](O)[C@@H](O)C1=O` are over 50 µM, over 200 µM and over 50 µM.
As to `CC(=O)OCC1=C[C@H](OCc2ccc(-c3ccccc3)cc2)[C@H](O)[C@@H](O)C1=O`, the IC50 with WRL68 worked out at 71.3 µM. This counts as double-digit micromolar.
Turning to `CCCO[C@H]1C=C(COC(C)=O)C(=O)[C@H](O)[C@H]1O`, the IC50 with HL-60 came to 10.1 µM; with WRL68 it was 191 µM; in the experiment with HepG2 it was 33.6 µM.
The corresponding values for `CCCCCO[C@H]1C=C(COC(C)=O)C(=O)[C@H](O)[C@H]1O` are 3.1 µM, 169 µM and 16.1 µM.
For the compound `CCCCCO[C@@H]1C=C(COC(C)=O)C(=O)[C@H](O)[C@H]1O`, the IC50 in the experiment on HL-60 was found to be 2.6 µM; in the experiment on WRL68, 48.3 µM; with HepG2 it was 10.1 µM.
On to `OCC1=C[C@H](O)[C@H](O)[C@@H](O)[C@@H]1O` [STREPTOL], for which the IC50 with HL-60 is over 50 µM; in the experiment with WRL68, over 200 µM; in the experiment with HepG2, over 50 µM.
